According to patent publication US20220274967A1, “BCAT MODULATION” (Icagen, LLC, priority 2019, published 2022):

Experiments:
[1] = test system: Primary human fibroblasts from a patient with propionic acidemia (Coriell #GM00371); assay: Cell viability (cell Titer-Glo) of propionic acidemia fibroblasts; type: cell-based; details: FIG. 1
Method: (§1) Primary human fibroblasts from a patient with propionic acidemia (Coriell #GM00371) were plated in complete media (EMEM, 15% FBS) in a 96-well plate at 10,000 cells/well and incubated overnight at 37° C. at 5% CO2. Compounds were serially diluted initially in DMSO then into serum-free EMEM media. The cells were then washed with D-PBS before addition of the media containing the diluted compound, and were then incubated at 37° C. at 5% CO2 overnight.
Cell viability was also determined with cell Titer-Glo reagent (Promega) by addition of equal volumes of D-PBS and Cell Titer-Glo reagent to cell wells and following manufacturer's recommendations for detection of luminescence signal.

propionyl carnitine = assay: Propionyl carnitine in conditioned media of propionic acidemia fibroblasts; type: cell-based, human; details: 24 hours, increasing concentrations, FIG. 1
Method: could inhibit levels of the downstream metabolite propionyl carnitine, which is found to be elevated in patients with propionic acidemia, by analyzing propionyl carnitine levels in conditioned media in human fibroblasts from a patient with propionic acidemia treated with a dose response of the compound of the disclosure.
as §1
The conditioned media was removed from cells after 24 hours of compound treatment and was diluted 2× with D3-propionyl carnitine internal standard diluted in MS-grade methanol. Plates were sealed and samples were frozen at −80DGC for more than 30 minutes, followed by thawing at room temperature and centrifugation for 10 minutes at 4000 rpm. The samples were then analyzed for propionyl carnitine by LC-LC/MS using TSQ Vantage using a Kinetex 2.6 μm Biphenyl 2.1×50 mm column with Mobile Phase A of 95% (0.1% Formic acid in Water)+5% Water and Mobile Phase B of 95% McOH+5% (0.1% Formic acid in Water).

[2] = test system: branched chain amino acids (BCAA) in plasma; assay: Repetitive treatment with BCAT2 inhibitor compound: plasma amino acids; type: in vivo; details: mice
Method: Male, C57Black/6J mice (6-7 weeks, Jackson Laboratories, Bar Harbor, Me.) were used in all in vivo experiments. Animals were maintained on a 12 hour light/dark reverse cycle in a temperature- and humidity-controlled room with access to food and water ad libitum. Before the experiment, animals underwent a 7-day acclimation period.
All biological samples were stored in −80° C. until analysis. […] In particular, 20 μL of mouse plasma were precipitated with 180 μL acetonitrile containing 5 μg/ml D8-Valine. Samples were vortexed vigorously and centrifuged to remove precipitated protein. 2 μL of supernatant was injected on a Phenomenex Gemini C18 column (4.6 mm×150 mm, 5 μm particle size) for separation under a linear gradient from 2% ACN to 50% ACN in 10 minutes followed by a 7 minute equilibration with 2% ACN.
Animals were grouped based on pair matched body weight and received either vehicle (0.5% HPMC K100+0.1 Tween 80, pH=10.0) or a daily dose of compound (200 mg/kg, PO) for 9 days. From day 1 to day 5, all animals were provided with normal diet. […] On day 9, blood, bladder urine as well as tissue samples (liver, brain, heart, muscle and kidney) were harvested 4 hours after the last dose. Three mice in each treatment/diet group were retained for a 3-day recovery phase observation. On day 12, blood, bladder urine as well as tissue samples (liver, brain, heart, muscle and kidney) were harvested. During the entire study course (day 1 to day 12), mice were able to access food and water freely. Body weights were measured daily and any abnormal behavior for toxicity signs was recorded.

[3] = Repetitive treatment: body weight and toxicity signs; type: in vivo; details: mice, 200 mg/kg PO once a day for 9 days and 3-day recovery
Method: […]. Animals were maintained on a 12 hour light/dark reverse cycle in a temperature- and humidity-controlled room with access to food and water ad libitum. Before the experiment, animals underwent a 7-day acclimation period. All procedures involving mice were approved by the Institutional Animal Care and Use Committee of the University of Arizona and were conducted in accordance with Principles of Laboratory Animal Care (National Institutes of Health Publication 85-23, revised in 1985).
Animals were grouped based on pair matched body weight and received either vehicle (0.5% HPMC K100+0.1 Tween 80, pH=10.0) or a daily dose of compound (200 mg/kg, PO) for 9 days. From day 1 to day 5, all animals were provided with normal diet. On day 6, the diet was switched to a precursor enriched chow (700% isoleucine, valine and threonine enriched, TD. 140829; Envigo) for half of the animals; the other half were still fed with normal diet. On day 9, blood, bladder urine as well as tissue samples (liver, brain, heart, muscle and kidney) were harvested 4 hours after the last dose. Three mice in each treatment/diet group were retained for a 3-day recovery phase observation. On day 12, blood, bladder urine as well as tissue samples (liver, brain, heart, muscle and kidney) were harvested. […] Body weights were measured daily and any abnormal behavior for toxicity signs was recorded.

[4] = 200 mg/kg PO for 9 days, normal diet, FIG. 4A
[5] = 200 mg/kg PO, Day 9, precursor-enriched diet, FIG. 4B

CNC(=O)c1ccc2c(c1)nc(-c1ccccn1)n2C1CCCC(NC(=O)c2ccc(Br)s2)C1 (stereo not drawn) [drawing 84]
impact on cell viability [1]: little impact
propionyl carnitine levels (propionyl carnitine): inhibited

CNC(=O)c1ccc2c(c1)nc(-c1ccccn1)n2C1CCCC(NC(=O)c2ccc(Br)s2)C1 (stereo not drawn) [drawing 85]
plasma level of Leu [2, 4]: significantly increased
plasma level of Ser [2, 4]: not
plasma level of Val [2, 4]: significantly increased
levels of BCAAs in plasma, compound vs vehicle [2, 5]: no significant changes
plasma level of leucine [2, 5]: slight but significant decrease
abnormal behaviors reflecting toxicities [3]: no obvious abnormal behaviors reflecting toxicities
body weight ([3]; FIG. 3A): no significant loss
